Assay results from patent US6110949A, “N-(substituted glycyl)-4-cyanothiazolidines, pharmaceutical compositions containing them and their use in inhibiting dipeptidyl peptidase-IV” (Novartis AG, priority 1999, dated 2000).
Where a name gives a salt, the structure may show the parent alone.

What was measured:
Format in all cases: biochemical
rat plasma DPP-IV = target: T1, rat plasma DPP-IV (Rattus norvegicus, UniProt P14740); assay: Inhibition of DPP-IV activity in rat plasma; settings: substrate H-Glycine-Proline-AMC, pH 7.8, room temperature, 20 min
T1 construct: from tissue; host or cells: rat plasma
Protocol: (§1) 192-197 (1992). Briefly, five μl of plasma are added to 96-well flat-bottom mictotiter plates (Falcon), followed by the addition of 5 μl of 80 mM MgCI2 in incubation buffer (25 mM HEPES, 140 mM NaCl, 1% RIA-grade BSA, pH 7.8). After a 5 min. incubation at room temperature, the reaction is initiated by the addition of 10 μl of incubation buffer containing 0.1 mM substrate (H-Glycine-Proline-AMC; AMC is 7-amino-4-methylcoumarin). The plates are covered with aluminum foil (or kept in the dark) and incubated at room temperature for 20 min. After the 20 min. reaction, fluorescence is measured using a CytoFluor 2350 fluorimeter (Excitation 380 nm Emission 460 nm; sensitivity setting 4). Test compounds are typically added as 2 μl additions and the assay buffer volume is reduced to 13 μl. A fluorescence-concentration curve of free AMC is generated using 0-50 μM solutions of AMC in assay buffer. The curve generated is linear and is used for interpolation of substrate consumption (catalytic activity in nmoles substrate cleaved/min). As with the previous assay, the potency of the test compounds as DPP-IV inhibitors, expressed as IC50, is calculated from 8-point, dose-response curves using a 4 parameter logistic function.

[1] = target: T2, DPP-IV (Caco-2 cell extract) (Homo sapiens, UniProt P27487); assay: Caco-2 DPP-IV Assay (inhibition of DPP-IV activity from human colonic carcinoma cell extracts); settings: substrate H-Alanine-Proline-pNA, pH 7.4, room temperature, 10 minutes
T2 construct: adding 20 μg solubilized Caco-2 protein; endogenous in cells; host or cells: Caco-2 (ATCC HTB 37), differentiated to induce DPP-IV expression; nonidet-P40 extract
From the text: As indicated above, all of the compounds of formula I, and their corresponding pharmaceutically acceptable acid addition salts, are useful in inhibiting DPP-IV. […] The human colonic carcinoma cell line Caco-2 was obtained from the American Type Culture Collection (ATCC HTB 37). Differentiation of the cells to induce DPP-IV expression was accomplished as described by Reisher, et al. in an article entitled "Increased expression of . . . intestinal cell line Caco-2" in Proc. Natl. Acad. Sci., Vol. 90, pgs. 5757-5761 (1993). Cell extract is prepared from cells solubilized in 10 mM Tris-HCl, 0.15 M NaCl, 0.04 t.i.u. aprotinin, 0.5% nonidet-P40, pH 8.0, which is centrifuged at 35,000 g for 30 min. at 4° C. to remove cell debris. The assay is conducted by adding 20 μg solubilized Caco-2 protein, diluted to a final volume of 125 μl in assay buffer (25 mM Tris-HCl pH 7.4, 140 mM NaCl, 10 mM KCl, 1% bovine serum albumin) to microtiter plate wells. The reaction is initiated by adding 25 μl of 1 mM substrate (H-Alanine-Proline-pNA; pNA is p-nitroaniline). The reaction is run at room temperature for 10 minutes after which time a 19 μl volume of 25% glacial acetic acid is added to stop the reaction. Test compounds are typically added as 30 μl additions and the assay buffer volume is reduced to 95 μl. A standard curve of free p-nitroaniline is generated using 0-500 μM solutions of free pNA in assay buffer. The curve generated is linear and is used for interpolation of substrate consumption (catalytic activity in nmoles substrate cleaved /min). The endpoint is determined by measuring absorbance at 405 nm in a Molecular Devices UV Max microtiter plate reader. The potency of the test compounds as DPP-IV inhibitors, expressed as IC50, is calculated from 8-point, dose-response curves using a 4-parameter logistic function.

human plasma DPP-IV = target: T3, human plasma DPP-IV (Homo sapiens, UniProt P27487); assay: Inhibition of DPP-IV activity in human plasma; settings: substrate H-Glycine-Proline-AMC, pH 7.8, room temperature, 20 min
T3 construct: from tissue; host or cells: human plasma
Protocol: as §1

T3 sequence (P27487 39-766 limits assumed): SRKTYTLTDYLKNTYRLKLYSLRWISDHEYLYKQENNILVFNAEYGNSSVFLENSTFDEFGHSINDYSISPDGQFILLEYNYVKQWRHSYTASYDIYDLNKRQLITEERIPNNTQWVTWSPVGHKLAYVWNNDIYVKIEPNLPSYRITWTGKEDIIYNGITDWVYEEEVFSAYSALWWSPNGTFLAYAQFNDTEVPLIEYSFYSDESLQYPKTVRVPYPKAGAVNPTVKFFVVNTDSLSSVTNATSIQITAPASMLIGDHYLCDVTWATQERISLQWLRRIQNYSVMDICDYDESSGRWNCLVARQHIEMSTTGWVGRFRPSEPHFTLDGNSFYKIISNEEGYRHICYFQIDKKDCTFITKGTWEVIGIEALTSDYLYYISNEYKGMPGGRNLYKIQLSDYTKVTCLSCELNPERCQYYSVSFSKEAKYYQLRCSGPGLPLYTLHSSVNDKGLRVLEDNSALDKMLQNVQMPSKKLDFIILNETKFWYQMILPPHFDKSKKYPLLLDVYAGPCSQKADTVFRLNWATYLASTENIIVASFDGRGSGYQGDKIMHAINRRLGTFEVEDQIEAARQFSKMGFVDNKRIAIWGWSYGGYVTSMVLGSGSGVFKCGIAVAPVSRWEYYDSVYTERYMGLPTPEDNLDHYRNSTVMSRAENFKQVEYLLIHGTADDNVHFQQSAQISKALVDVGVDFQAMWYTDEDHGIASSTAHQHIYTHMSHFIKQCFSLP
T2 sequence (P27487 whole entry): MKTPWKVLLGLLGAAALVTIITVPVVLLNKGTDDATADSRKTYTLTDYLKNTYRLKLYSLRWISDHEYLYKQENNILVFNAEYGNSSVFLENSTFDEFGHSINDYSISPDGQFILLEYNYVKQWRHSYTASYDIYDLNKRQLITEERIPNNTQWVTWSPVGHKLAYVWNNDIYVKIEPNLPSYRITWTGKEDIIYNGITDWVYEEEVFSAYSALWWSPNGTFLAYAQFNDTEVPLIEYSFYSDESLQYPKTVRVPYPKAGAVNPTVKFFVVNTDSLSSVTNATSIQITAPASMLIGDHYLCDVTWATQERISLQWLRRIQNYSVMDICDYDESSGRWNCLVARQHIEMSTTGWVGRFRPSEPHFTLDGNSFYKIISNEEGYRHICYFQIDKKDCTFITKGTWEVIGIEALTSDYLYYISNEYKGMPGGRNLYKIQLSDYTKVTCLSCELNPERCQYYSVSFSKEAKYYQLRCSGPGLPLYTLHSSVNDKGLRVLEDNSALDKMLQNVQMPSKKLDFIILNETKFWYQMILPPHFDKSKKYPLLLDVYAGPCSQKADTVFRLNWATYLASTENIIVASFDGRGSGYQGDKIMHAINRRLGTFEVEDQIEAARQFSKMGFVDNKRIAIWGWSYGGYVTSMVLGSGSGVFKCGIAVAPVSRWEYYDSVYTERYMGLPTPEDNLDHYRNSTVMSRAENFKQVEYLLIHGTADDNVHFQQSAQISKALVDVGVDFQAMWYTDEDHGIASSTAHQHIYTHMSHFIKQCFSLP
T1 sequence (P14740 37-767 limits assumed): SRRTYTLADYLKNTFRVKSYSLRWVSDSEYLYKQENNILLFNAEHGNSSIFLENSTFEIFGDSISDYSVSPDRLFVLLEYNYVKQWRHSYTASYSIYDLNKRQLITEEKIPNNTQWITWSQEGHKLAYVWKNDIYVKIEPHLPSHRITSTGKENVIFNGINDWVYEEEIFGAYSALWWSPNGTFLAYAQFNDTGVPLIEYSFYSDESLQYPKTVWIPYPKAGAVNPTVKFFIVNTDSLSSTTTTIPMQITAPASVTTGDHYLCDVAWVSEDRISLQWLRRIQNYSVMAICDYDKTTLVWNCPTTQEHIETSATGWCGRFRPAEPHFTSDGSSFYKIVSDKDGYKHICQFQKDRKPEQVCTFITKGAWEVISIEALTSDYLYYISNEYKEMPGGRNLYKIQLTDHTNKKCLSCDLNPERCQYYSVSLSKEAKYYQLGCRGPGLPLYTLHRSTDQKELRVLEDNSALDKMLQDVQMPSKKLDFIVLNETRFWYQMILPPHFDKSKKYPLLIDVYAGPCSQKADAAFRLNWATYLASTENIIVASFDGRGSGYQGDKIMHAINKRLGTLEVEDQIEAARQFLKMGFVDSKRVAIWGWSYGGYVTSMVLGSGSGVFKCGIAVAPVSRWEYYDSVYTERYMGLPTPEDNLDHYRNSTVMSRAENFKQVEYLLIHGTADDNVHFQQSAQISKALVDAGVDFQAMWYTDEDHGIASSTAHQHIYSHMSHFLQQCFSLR

Structure (SMILES)	IC50 (rat plasma DPP-IV) [nM]	IC50 [1] [nM]	IC50 (human plasma DPP-IV) [nM]
CC(C)OCCCNCC(=O)N1CSC[C@H]1C#N [Ex. 2, 3-[(3-isopropoxypropyl)amino]acetyl-4-cyano-(R)-thiazolidine monohydrochloride]	1	7	5
CC(C)NCC(=O)N1CSC[C@H]1C#N [Ex. 3, 3-[(isopropyl)amino]acetyl-4-cyano-(R)-thiazolidine monohydrochloride]	3	6	3
N#C[C@@H]1CSCN1C(=O)CNC1CCCCC1 [Ex. 1, 3-[(cyclohexyl)amino]acetyl-4-cyano-(R)-thiazolidine monohydrochloride]	10	7	10
